# In US11912686B2 (Gilead Sciences, Inc., priority 2020, dated 2024):
# Biological target: human LPAR1 (Homo sapiens (Human), UniProt Q92633)
# Experiment: LPAR1 intracellular calcium mobilization assay (antagonist mode, FLIPR)
# Format: cell-based
# Conditions: CHO-K1 EDG2 cells expressing human LPAR1, LPA 18:2 at EC80 (100 nM), test compound 0.5 nM to 10 μM
# Chain of human LPAR1 (Q92633 whole entry): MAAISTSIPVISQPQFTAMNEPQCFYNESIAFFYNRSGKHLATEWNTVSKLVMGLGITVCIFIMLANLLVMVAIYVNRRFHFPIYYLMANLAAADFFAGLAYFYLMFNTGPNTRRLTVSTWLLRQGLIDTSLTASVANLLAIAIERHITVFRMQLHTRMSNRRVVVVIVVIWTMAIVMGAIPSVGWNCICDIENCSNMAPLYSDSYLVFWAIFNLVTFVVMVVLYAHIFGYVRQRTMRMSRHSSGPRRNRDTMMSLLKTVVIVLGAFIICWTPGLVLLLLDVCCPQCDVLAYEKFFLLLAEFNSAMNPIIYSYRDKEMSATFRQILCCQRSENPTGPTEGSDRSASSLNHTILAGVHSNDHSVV
row,Structure (SMILES),EC50 [nM]
1,"C[C@@H](OC(=O)Nc1c(-c2ccc(NC(=O)C3(C(F)(F)F)CC4(CCC4)C3)cn2)nnn1C)c1cccnc1Cl [Compound 78, (R)-1-(2-chloropyridin-3-yl)ethyl (1-methyl-4-(5-(2-(trifluoromethyl)spiro[3.3]heptane-2-carboxamido)pyridin-2-yl)-1H-1,2,3-triazol-5-yl)carbamate]",83.6
2,"C[C@@H](OC(=O)Nc1c(-c2ccc(NC(=O)C3(C#N)CC4(CCC4)C3)cn2)nnn1C)c1cccnc1Cl [Compound 79, (R)-1-(2-chloropyridin-3-yl)ethyl (4-(5-(2-cyanospiro[3.3]heptane-2-carboxamido)pyridin-2-yl)-1-methyl-1H-1,2,3-triazol-5-yl)carbamate]",16
3,"C[C@@H](OC(=O)Nc1c(-c2ccc(NC(=O)C3CC4(CC(C#N)C4)C3)cn2)nnn1C)c1cccnc1Cl (stereo partly drawn) [Compound 80, (R)-1-(2-chloropyridin-3-yl)ethyl (4-(5-(6-cyanospiro[3.3]heptane-2-carboxamido)pyridin-2-yl)-1-methyl-1H-1,2,3-triazol-5-yl)carbamate]",109
4,"C[C@@H](OC(=O)Nc1c(-c2ccc(NC(=O)C3CC4(CC(F)C4)C3)cn2)nnn1C)c1cccnc1Cl (stereo partly drawn) [Compound 81, (R)-1-(2-chloropyridin-3-yl)ethyl (4-(5-(6-fluorospiro[3.3]heptane-2-carboxamido)pyridin-2-yl)-1-methyl-1H-1,2,3-triazol-5-yl)carbamate]",22.8
5,"C[C@@H](OC(=O)Nc1c(-c2ccc(NC(=O)C34CC(Cl)(C3)C4)cn2)nnn1C)c1cccnc1Cl [Compound 82, (R)-1-(2-chloropyridin-3-yl)ethyl (4-(5-(3-chlorobicyclo[1.1.1]pentane-1-carboxamido)pyridin-2-yl)-1-methyl-1H-1,2,3-triazol-5-yl)carbamate]",20.4
6,"C[C@@H](OC(=O)Nc1c(-c2ccc(NC(=O)C3CC(=O)C3)cn2)nnn1C)c1cccnc1Cl [Compound 83, (R)-1-(2-chloropyridin-3-yl)ethyl (1-methyl-4-(5-(3-oxocyclobutane-1-carboxamido)pyridin-2-yl)-1H-1,2,3-triazol-5-yl)carbamate]",344
7,"C[C@@H](OC(=O)Nc1c(-c2ccc(NC(=O)C3CC(C)(C)C3)cn2)nnn1C)c1cccnc1Cl [Compound 84, (R)-1-(2-chloropyridin-3-yl)ethyl (4-(5-(3,3-dimethylcyclobutane-l-carboxamido)pyridin-2-yl)-1-methyl-1H-1,2,3-triazol-5-yl)carbamate]",14.5
8,"C[C@@H](OC(=O)Nc1c(-c2ccc(NC(=O)[C@H]3C[C@@]4(CC4(F)F)C3)cn2)nnn1C)c1cccnc1Cl [Compound 85, (R)-1-(2-chloropyridin-3-yl)ethyl (4-(5-((3R,5r)-1,1-difluorospiro[2.3]hexane-5-carboxamido)pyridin-2-yl)-1-methyl-1H-1,2,3-triazol-5-yl)carbamate]",11.2
9,"C[C@@H](OC(=O)Nc1c(-c2ccc(NC(=O)[C@H]3C[C@]4(CC4(F)F)C3)cn2)nnn1C)c1cccnc1Cl [Compound 86, (R)-1-(2-chloropyridin-3-yl)ethyl (4-(5-((3S,5s)-1,1-difluorospiro[2.3]hexane-5-carboxamido)pyridin-2-yl)-1-methyl-1H-1,2,3-triazol-5-yl)carbamate]",16.6
10,"C[C@@H](OC(=O)Nc1c(-c2ccc(NC(=O)C3(C#N)CC4(CC4)C3)cn2)nnn1C)c1cccnc1Cl [Compound 87, (R)-1-(2-chloropyridin-3-yl)ethyl (4-(5-(5-cyanospiro[2.3]hexane-5-carboxamido)pyridin-2-yl)-1-methyl-1H-1,2,3-triazol-5-yl)carbamate]",16.1
11,"C[C@@H](OC(=O)Nc1c(-c2ccc(NC(=O)C3CC4(CC4)C3)cn2)nnn1C)c1cccnc1Cl [Compound 88, (R)-1-(2-chloropyridin-3-yl)ethyl (1-methyl-4-(5-(spiro[2.3]hexane-5-carboxamido)pyridin-2-yl)-1H-1,2,3-triazol-5-yl)carbamate]",8.6
12,"C[C@@H](OC(=O)Nc1c(-c2ccc(NC(=O)C3(C#N)CC34CCCC4)cn2)nnn1C)c1cccnc1Cl (stereo partly drawn) [Compound 89, (R)-1-(2-chloropyridin-3-yl)ethyl (4-(5-(1-cyanospiro[2.4]heptane-1-carboxamido)pyridin-2-yl)-1-methyl-1H-1,2,3-triazol-5-yl)carbamate]",312
13,"C[C@@H](OC(=O)Nc1c(-c2ccc(NC(=O)[C@@H]3CCC3(F)F)cn2)nnn1C)c1cccnc1Cl [Compound 90, (R)-1-(2-chloropyridin-3-yl)ethyl (4-(5-((S)-2,2-difluorocyclobutane-1-carboxamido)pyridin-2-yl)-1-methyl-1H-1,2,3-triazol-5-yl)carbamate]",73.5
14,"C[C@@H](OC(=O)Nc1c(-c2ccc(NC(=O)[C@H]3CCC3(F)F)cn2)nnn1C)c1cccnc1Cl [Compound 91, (R)-1-(2-chloropyridin-3-yl)ethyl (4-(5-((R)-2,2-difluorocyclobutane-1-carboxamido)pyridin-2-yl)-1-methyl-1H-1,2,3-triazol-5-yl)carbamate]",187
15,"C[C@@H](OC(=O)Nc1c(-c2ccc(NC(=O)C3(C(N)=O)CC3)cn2)nnn1C)c1cccnc1Cl [Compound 92, (R)-1-(2-chloropyridin-3-yl)ethyl (4-(5-(1-carbamoylcyclopropane-1-carboxamido)pyridin-2-yl)-1-methyl-1H-1,2,3-triazol-5-yl)carbamate]",601
16,"C[C@@H](OC(=O)Nc1c(-c2ccc(NC(=O)C3(C#N)COC3)cn2)nnn1C)c1cccnc1Cl [Compound 93, (R)-1-(2-chloropyridin-3-yl)ethyl (4-(5-(3-cyanooxetane-3-carboxamido)pyridin-2-yl)-1-methyl-1H-1,2,3-triazol-5-yl)carbamate]",133
17,"C[C@@H](OC(=O)Nc1c(-c2ccc(NC(=O)C3(c4cccnc4)CC3)cn2)nnn1C)c1cccnc1Cl [Compound 94, (R)-1-(2-chloropyridin-3-yl)ethyl (1-methyl-4-(5-(1-(pyridin-3-yl)cyclopropane-1-carboxamido)pyridin-2-yl)-1H-1,2,3-triazol-5-yl)carbamate]",4820
18,"C[C@@H](OC(=O)Nc1c(-c2ccc(NC(=O)C3(C#N)CCOCC3)cn2)nnn1C)c1cccnc1Cl [Compound 95, (R)-1-(2-chloropyridin-3-yl)ethyl (4-(5-(4-cyanotetrahydro-2H-pyran-4-carboxamido)pyridin-2-yl)-1-methyl-1H-1,2,3-triazol-5-yl)carbamate]",309
19,"CCC1(C(=O)Nc2ccc(-c3nnn(C)c3NC(=O)O[C@H](C)c3cccnc3Cl)nc2)COC1 [Compound 96, (R)-1-(2-chloropyridin-3-yl)ethyl (4-(5-(3-ethyloxetane-3-carboxamido)pyridin-2-yl)-1-methyl-1H-1,2,3-triazol-5-yl)carbamate]",2330
20,"C[C@@H](OC(=O)Nc1c(-c2ccc(NC(=O)C3(C)COC3)cn2)nnn1C)c1cccnc1Cl [Compound 97, (R)-1-(2-chloropyridin-3-yl)ethyl (1-methyl-4-(5-(3-methyloxetane-3-carboxamido)pyridin-2-yl)-1H-1,2,3-triazol-5-yl)carbamate]",395
21,"C[C@@H](OC(=O)Nc1c(-c2ccc(NC(=O)c3cccc(C#N)n3)cn2)nnn1C)c1cccnc1Cl [Compound 98, (R)-1-(2-chloropyridin-3-yl)ethyl (4-(5-(6-cyanopicolinamido)pyridin-2-yl)-1-methyl-1H-1,2,3-triazol-5-yl)carbamate]",720
22,"C[C@@H](OC(=O)Nc1c(-c2ccc(NC(=O)c3ccc(C#N)nc3)cn2)nnn1C)c1cccnc1Cl [Compound 99, (R)-1-(2-chloropyridin-3-yl)ethyl (4-(5-(6-cyanonicotinamido)pyridin-2-yl)-1-methyl-1H-1,2,3-triazol-5-yl)carbamate]",53.9
23,"C[C@@H](OC(=O)Nc1c(-c2ccc(NC(=O)c3ccnc(C#N)c3)cn2)nnn1C)c1cccnc1Cl [Compound 100, (R)-1-(2-chloropyridin-3-yl)ethyl (4-(5-(2-cyanoisonicotinamido)pyridin-2-yl)-1-methyl-1H-1,2,3-triazol-5-yl)carbamate]",90.8
24,"Cc1cnccc1C(=O)Nc1ccc(-c2nnn(C)c2NC(=O)O[C@H](C)c2cccnc2Cl)nc1 [Compound 101, (R)-1-(2-chloropyridin-3-yl)ethyl (1-methyl-4-(5-(3-methylisonicotinamido)pyridin-2-yl)-1H-1,2,3-triazol-5-yl)carbamate]",1040
25,"Cc1cc(C(=O)Nc2ccc(-c3nnn(C)c3NC(=O)O[C@H](C)c3cccnc3Cl)nc2)ccn1 [Compound 102, (R)-1-(2-chloropyridin-3-yl)ethyl (1-methyl-4-(5-(2-methylisonicotinamido)pyridin-2-yl)-1H-1,2,3-triazol-5-yl)carbamate]",85.6
26,"C[C@@H](OC(=O)Nc1c(-c2ccc(NC(=O)c3ccnc(Cl)c3)cn2)nnn1C)c1cccnc1Cl [Compound 103, (R)-1-(2-chloropyridin-3-yl)ethyl (4-(5-(2-chloroisonicotinamido)pyridin-2-yl)-1-methyl-1H-1,2,3-triazol-5-yl)carbamate]",16.6
27,"C[C@@H](OC(=O)Nc1c(-c2ccc(NC(=O)C34COC(C3)C4)cn2)nnn1C)c1cccnc1Cl [Compound 104, (R)-1-(2-chloropyridin-3-yl)ethyl (4-(5-(2-oxabicyclo[2.1.1]hexane-4-carboxamido)pyridin-2-yl)-1-methyl-1H-1,2,3-triazol-5-yl)carbamate]",560
28,"C[C@@H](OC(=O)Nc1c(-c2ccc(NC(=O)C34CC(CO3)C4)cn2)nnn1C)c1cccnc1Cl [Compound 105, (R)-1-(2-chloropyridin-3-yl)ethyl (4-(5-(2-oxabicyclo[2.1.1]hexane-1-carboxamido)pyridin-2-yl)-1-methyl-1H-1,2,3-triazol-5-yl)carbamate]",1580
29,"C[C@@H](OC(=O)Nc1c(-c2ccc(NC(=O)c3c[nH]cn3)cn2)nnn1C)c1cccnc1Cl [Compound 106, (R)-1-(2-chloropyridin-3-yl)ethyl (4-(5-(1H-imidazole-4-carboxamido)pyridin-2-yl)-1-methyl-1H-1,2,3-triazol-5-yl)carbamate]",1760
